This passage reports ED50 results from ChEMBL document CHEMBL1148325 (J Med Chem, 2004).

This assay in a line: In vivo reduction in blood pressure relative to maximum achieved with the K-ATP standard P1075 in spontaneously hypertensive rat.
Take `O=C1CCCC2=C1[C@@H](c1ccc(F)c(Br)c1)C1=C(O)OCC1=N2`: the ED50 stood at 2450 nM. `O=C1CCCC2=C1[C@H](c1ccc(F)c(Br)c1)C1=C(CCS1(=O)=O)N2`: the ED50 was determined as 427 nM. In the case of `O=C1OCC2=C1C(c1ccc(F)c(Br)c1)C1=C(O)OCC1=N2` (stereo not drawn) it was 398 nM.
